Results taken from ChEMBL document CHEMBL1201862, “PubChem BioAssay data set” (2004).
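Briefly, cells in 96-well plates were exposed to five compound concentrations for 48 h, and endpoints were estimated by linear interpolation. The concentration for 50% growth inhibition is given as GI50.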 Calls of active or inactive are those of the source. No stated cut-off is given here; in the data, active = GI50 up to about 1.1 µM and inactive = higher.

Experiments:
Assay in all cases: inhibition of tumour cell growth, NCI panel, 48 h
RPMI-8226 = test system: RPMI-8226
KM12 = test system: KM12
786-0 = test system: 786-0
CAKI-1 = test system: CAKI-1
SK-OV-3 = test system: SK-OV-3
LXFL 529 = test system: LXFL 529
NCI-H226 = test system: NCI-H226
SF-295 = test system: SF-295
UO-31 = test system: UO-31
M19-MEL = test system: M19-MEL
SN12C = test system: SN12C
HCT-15 = test system: HCT-15
KM-20L2 = test system: KM-20L2
EKVX = test system: EKVX
M14 = test system: M14
UACC-257 = test system: UACC-257
HL-60 = test system: HL-60
U-251 = test system: U-251
RXF 631 = test system: RXF 631
SF-268 = test system: SF-268
COLO 205 = test system: COLO 205
SW-620 = test system: SW-620
UACC-62 = test system: UACC-62
HCT-116 = test system: HCT-116
HT-29 = test system: HT-29
OVCAR-4 = test system: OVCAR-4
DMS-114 = test system: DMS-114
MOLT-4 = test system: MOLT-4
NCI-H460 = test system: NCI-H460
TK-10 = test system: TK-10
A498 = test system: A498
CCRF-CEM = test system: CCRF-CEM
ACHN = test system: ACHN
OVCAR-8 = test system: OVCAR-8
SF-539 = test system: SF-539
NCI-H23 = test system: NCI-H23
Malme-3M = test system: Malme-3M
SNB-78 = test system: SNB-78
NCI-H522 = test system: NCI-H522
OVCAR-3 = test system: OVCAR-3
HOP-62 = test system: HOP-62
LOX IMVI = test system: LOX IMVI
SR = test system: SR
OVCAR-5 = test system: OVCAR-5
A549 = test system: A549
IGROV-1 = test system: IGROV-1
SK-MEL-5 = test system: SK-MEL-5
SNB-19 = test system: SNB-19
DLD-1 = test system: DLD-1
HCC 2998 = test system: HCC 2998
SK-MEL-2 = test system: SK-MEL-2
RXF 393 = test system: RXF 393
K562 = test system: K562
SK-MEL-28 = test system: SK-MEL-28
SNB-75 = test system: SNB-75
DMS-273 = test system: DMS-273
HOP-92 = test system: HOP-92
HOP-18 = test system: HOP-18

Measured: GI50

CCCCC#COP(=O)(OCC)OCC
inactive: RPMI-8226 > 100 µM | KM12 > 100 µM | 786-0 > 100 µM | CAKI-1 > 100 µM | SK-OV-3 > 100 µM | LXFL 529 > 100 µM | NCI-H226 > 100 µM | SF-295 > 100 µM | UO-31 > 100 µM | M19-MEL > 100 µM | SN12C > 100 µM | KM-20L2 > 100 µM | EKVX > 100 µM | M14 > 100 µM | UACC-257 > 100 µM | HL-60 > 100 µM | U-251 > 100 µM | RXF 631 > 100 µM | SF-268 > 100 µM | COLO 205 > 100 µM | SW-620 > 100 µM | UACC-62 > 100 µM | HCT-116 > 100 µM | HT-29 > 100 µM | OVCAR-4 > 100 µM | DMS-114 > 100 µM | MOLT-4 > 100 µM | NCI-H460 > 100 µM | TK-10 > 100 µM | A498 > 100 µM | CCRF-CEM > 100 µM | ACHN > 100 µM | OVCAR-8 > 100 µM | SF-539 > 100 µM | NCI-H23 > 100 µM | Malme-3M > 100 µM | SNB-78 > 100 µM | NCI-H522 > 100 µM | OVCAR-3 > 100 µM | HOP-62 > 100 µM | LOX IMVI > 100 µM | SR > 100 µM | OVCAR-5 > 100 µM | A549 > 100 µM | IGROV-1 > 100 µM | SK-MEL-5 > 100 µM | SNB-19 > 100 µM | DLD-1 > 100 µM | HCC 2998 > 100 µM | SK-MEL-2 > 100 µM
> 100 µM: HCT-15

CC1=C(c2cc(C(=O)Nc3cccc(C(F)(F)F)c3)nc(NC#N)n2)Sc2ccccc2N1
inactive: RPMI-8226 > 100 µM | RXF 393 > 100 µM | KM12 > 100 µM | 786-0 97.5 µM | CAKI-1 > 100 µM | SK-OV-3 > 100 µM | LXFL 529 > 100 µM | K562 > 100 µM | NCI-H226 > 100 µM | SF-295 > 100 µM | UO-31 > 100 µM | M19-MEL > 100 µM | SN12C > 100 µM | KM-20L2 > 100 µM | EKVX > 100 µM | M14 > 100 µM | UACC-257 > 100 µM | HL-60 > 100 µM | SK-MEL-28 > 100 µM | U-251 86.5 µM | RXF 631 > 100 µM | SF-268 > 100 µM | COLO 205 > 100 µM | SW-620 > 100 µM | UACC-62 > 100 µM | HCT-116 > 100 µM | SNB-75 > 100 µM | HT-29 > 100 µM | OVCAR-4 31.7 µM | DMS-114 > 100 µM | MOLT-4 > 100 µM | NCI-H460 > 100 µM | TK-10 > 100 µM | A498 > 100 µM | CCRF-CEM 68.7 µM | ACHN > 100 µM | SF-539 > 100 µM | NCI-H23 > 100 µM | Malme-3M > 100 µM | SNB-78 > 100 µM | OVCAR-3 > 100 µM | HOP-62 > 100 µM | DMS-273 > 100 µM | LOX IMVI > 100 µM | SR > 100 µM | OVCAR-5 > 100 µM | A549 > 100 µM | IGROV-1 > 100 µM | SK-MEL-5 > 100 µM | SNB-19 > 100 µM | HOP-92 > 100 µM | DLD-1 > 100 µM | HCC 2998 > 100 µM | SK-MEL-2 > 100 µM | HOP-18 > 100 µM
> 100 µM: HCT-15
